Measurements: publication doi:10.1101/2025.10.20.683491v1 (biorxiv, 2025)

Target: hERG channel (Homo sapiens, UniProt Q12809, species not given)
Test: hERG channel inhibition assay
Type: cell-based

Sequence of hERG channel (Q12809 whole entry): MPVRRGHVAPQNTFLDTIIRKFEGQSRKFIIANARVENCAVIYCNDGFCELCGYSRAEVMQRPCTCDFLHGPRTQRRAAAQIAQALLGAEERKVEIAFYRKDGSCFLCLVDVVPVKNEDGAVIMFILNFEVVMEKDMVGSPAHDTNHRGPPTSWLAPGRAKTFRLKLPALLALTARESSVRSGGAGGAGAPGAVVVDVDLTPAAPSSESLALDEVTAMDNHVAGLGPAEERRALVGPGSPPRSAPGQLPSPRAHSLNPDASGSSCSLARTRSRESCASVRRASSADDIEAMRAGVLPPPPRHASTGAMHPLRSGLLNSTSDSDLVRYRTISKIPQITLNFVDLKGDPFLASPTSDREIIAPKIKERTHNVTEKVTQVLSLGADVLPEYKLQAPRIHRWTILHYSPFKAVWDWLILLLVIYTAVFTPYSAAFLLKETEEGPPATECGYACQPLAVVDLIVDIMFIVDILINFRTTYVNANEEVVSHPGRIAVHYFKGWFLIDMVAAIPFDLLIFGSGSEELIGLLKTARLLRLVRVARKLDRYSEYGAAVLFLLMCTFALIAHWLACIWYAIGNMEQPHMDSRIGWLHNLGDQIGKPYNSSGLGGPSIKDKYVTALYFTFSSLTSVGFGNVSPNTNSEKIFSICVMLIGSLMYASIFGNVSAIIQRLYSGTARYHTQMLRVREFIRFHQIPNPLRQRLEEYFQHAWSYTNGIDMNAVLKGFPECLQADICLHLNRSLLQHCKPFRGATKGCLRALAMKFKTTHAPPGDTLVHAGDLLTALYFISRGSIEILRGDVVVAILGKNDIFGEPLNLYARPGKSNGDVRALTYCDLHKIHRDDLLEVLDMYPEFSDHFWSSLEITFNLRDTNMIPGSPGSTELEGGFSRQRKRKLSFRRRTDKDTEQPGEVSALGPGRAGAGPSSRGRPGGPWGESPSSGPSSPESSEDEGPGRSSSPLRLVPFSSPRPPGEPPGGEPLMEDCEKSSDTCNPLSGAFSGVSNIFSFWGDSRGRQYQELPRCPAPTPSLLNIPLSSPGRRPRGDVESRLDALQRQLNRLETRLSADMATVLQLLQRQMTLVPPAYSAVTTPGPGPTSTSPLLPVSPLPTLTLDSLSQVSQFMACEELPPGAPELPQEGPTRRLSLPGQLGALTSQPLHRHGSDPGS

SMILES: CNC(=O)C[C@@H](NC(=O)C[C@H](Cc1c[nH]c2ccccc12)NC(=O)[C@@H]1CCCC[C@H]1NCc1cnc(-c2sc(C)nc2C)o1)c1ccccc1 [DEL-C1]
- IC50: > 100 µM
